Experimental data published in article PMC4054929 (Bioorganic & medicinal chemistry, 2014).
Values joined by “and” are separate entries in the source; they are usually repeats but may differ in a detail not shown here. Equal values may be shown once.

Legend:
PDE10A [1] = details: unlabeled compounds; cited from earlier work
[2] = In vivo biodistribution and regional brain uptake in rats; details: for Biodistribution, blood / Biodistribution, cerebellum / Biodistribution, fat / Biodistribution, heart / Biodistribution, kidney / Biodistribution, liver / Biodistribution, lung / Biodistribution, muscle / Biodistribution, striatum / Biodistribution, total brain: male SD rats, i.v.
PDE10A [3] = target: PDE10A (Rattus norvegicus, UniProt Q9QYJ6)
PDE10A [4] = details: NHP brain
[5] = rats pretreated with MP-10 2.0 mg/kg 5 min prior to tracer, 30 min p.i.

PDE10A (Rattus norvegicus, UniProt Q9QYJ6), sequence (Q9QYJ6 whole entry): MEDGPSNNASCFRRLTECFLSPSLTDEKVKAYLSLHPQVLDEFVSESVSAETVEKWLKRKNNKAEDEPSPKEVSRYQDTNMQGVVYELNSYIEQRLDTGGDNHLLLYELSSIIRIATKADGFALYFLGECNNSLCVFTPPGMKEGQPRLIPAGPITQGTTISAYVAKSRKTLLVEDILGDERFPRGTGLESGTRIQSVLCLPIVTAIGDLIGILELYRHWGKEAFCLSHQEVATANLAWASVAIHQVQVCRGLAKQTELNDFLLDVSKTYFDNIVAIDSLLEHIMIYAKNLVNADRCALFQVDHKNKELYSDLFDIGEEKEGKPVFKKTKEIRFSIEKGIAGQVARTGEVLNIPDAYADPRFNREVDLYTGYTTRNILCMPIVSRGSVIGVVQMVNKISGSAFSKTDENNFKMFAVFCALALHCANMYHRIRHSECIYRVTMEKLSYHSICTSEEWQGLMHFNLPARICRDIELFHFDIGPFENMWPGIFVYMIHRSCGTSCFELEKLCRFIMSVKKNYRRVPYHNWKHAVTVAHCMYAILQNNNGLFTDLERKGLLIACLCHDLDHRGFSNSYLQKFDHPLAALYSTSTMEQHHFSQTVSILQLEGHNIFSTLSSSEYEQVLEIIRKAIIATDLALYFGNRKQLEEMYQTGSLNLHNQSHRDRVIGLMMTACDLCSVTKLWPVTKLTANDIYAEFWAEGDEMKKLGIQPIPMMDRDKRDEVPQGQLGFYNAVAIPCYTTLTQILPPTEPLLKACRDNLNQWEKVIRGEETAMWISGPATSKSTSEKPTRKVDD

COc1ccc2nc(COc3ccc(-c4nn(C)cc4-c4ccncc4)cc3)ccc2c1 [Compound 3]
IC50 (PDE10A [1]): 1.82 ± 0.25 nM

Cn1ncc(-c2ccncc2)c1-c1ccc(OCc2cc(O[11CH3])c3ccccc3n2)cc1 [[^11C]4, 4-(methoxy-^11C)-2-((4-(1-methyl-4-(pyridin-4-yl)-1H-pyrazol-5-yl)phenoxy)methyl)quinoline]
Biodistribution, blood ([2]; 5 min p.i.): 0.099 ± 0.015 %ID/gram
Biodistribution, cerebellum ([2]; 5 min p.i.): 0.094 ± 0.017 %ID/gram
Biodistribution, fat ([2]; 5 min p.i.): 0.066 ± 0.016 %ID/gram
Biodistribution, heart ([2]; 5 min p.i.): 0.335 ± 0.026 %ID/gram
Biodistribution, kidney ([2]; 5 min p.i.): 1.744 ± 0.316 %ID/gram
Biodistribution, liver ([2]; 5 min p.i.): 3.312 ± 0.494 %ID/gram
Biodistribution, lung ([2]; 5 min p.i.): 0.643 ± 0.196 %ID/gram
Biodistribution, muscle ([2]; 5 min p.i.): 0.146 ± 0.027 %ID/gram
Biodistribution, striatum ([2]; 5 min p.i.): 0.151 ± 0.033 ^a %ID/gram
Biodistribution, total brain ([2]; 5 min p.i.): 0.091 ± 0.017 %ID/gram
Biodistribution, blood ([2]; 30 min p.i. (control)): 0.067 ± 0.006 %ID/gram
Biodistribution, cerebellum ([2]; 30 min p.i. (control)): 0.024 ± 0.007 %ID/gram
Biodistribution, fat ([2]; 30 min p.i. (control)): 0.139 ± 0.027 %ID/gram
Biodistribution, heart ([2]; 30 min p.i. (control)): 0.132 ± 0.019 %ID/gram
Biodistribution, kidney ([2]; 30 min p.i. (control)): 0.645 ± 0.088 %ID/gram
Biodistribution, liver ([2]; 30 min p.i. (control)): 4.430 ± 0.481 %ID/gram
Biodistribution, lung ([2]; 30 min p.i. (control)): 0.156 ± 0.020 %ID/gram
Biodistribution, muscle ([2]; 30 min p.i. (control)): 0.093 ± 0.010 %ID/gram
Biodistribution, striatum ([2]; 30 min p.i. (control)): 0.083 ± 0.010 ^a %ID/gram
Biodistribution, total brain ([2]; 30 min p.i. (control)): 0.025 ± 0.004 %ID/gram
Biodistribution, blood ([2]; 60 min p.i.): 0.067 ± 0.011 %ID/gram
Biodistribution, cerebellum ([2]; 60 min p.i.): 0.015 ± 0.003 %ID/gram
Biodistribution, fat ([2]; 60 min p.i.): 0.139 ± 0.058 %ID/gram
Biodistribution, heart ([2]; 60 min p.i.): 0.103 ± 0.012 %ID/gram
Biodistribution, kidney ([2]; 60 min p.i.): 0.575 ± 0.075 %ID/gram
Biodistribution, liver ([2]; 60 min p.i.): 4.588 ± 0.577 %ID/gram
Biodistribution, lung ([2]; 60 min p.i.): 0.107 ± 0.016 %ID/gram
Biodistribution, muscle ([2]; 60 min p.i.): 0.052 ± 0.009 %ID/gram
Biodistribution, striatum ([2]; 60 min p.i.): 0.037 ± 0.004 ^a %ID/gram
Biodistribution, total brain ([2]; 60 min p.i.): 0.015 ± 0.002 %ID/gram

COc1cc2ccccc2nc1COc1ccc(-c2nn(C)cc2-c2ccncc2)cc1 [Compound 1]
IC50 (PDE10A [1]): 0.4 ± 0.02 nM

Cn1cc(-c2ccncc2)c(-c2ccc(OCc3cc(O[11CH3])c4ccccc4n3)cc2)n1 [[^11C]2, 4-(methoxy-^11C)-2-((4-(1-methyl-4-(pyridin-4-yl)-1H-pyrazol-3-yl)phenoxy)methyl)quinoline]
Distribution, blood, MP-10 block (PDE10A [3]; [5]): 0.343 ± 0.007 %ID/gram
Distribution, cerebellum, MP-10 block (PDE10A [3]; [5]): 0.112 ± 0.011 %ID/gram
Distribution, fat, MP-10 block (PDE10A [3]; [5]): 0.697 ± 0.219 %ID/gram
Distribution, heart, MP-10 block (PDE10A [3]; [5]): 0.310 ± 0.040 %ID/gram
Distribution, kidney, MP-10 block (PDE10A [3]; [5]): 1.072 ± 0.069 %ID/gram
Distribution, liver, MP-10 block (PDE10A [3]; [5]): 4.723 ± 0.489 %ID/gram
Distribution, lung, MP-10 block (PDE10A [3]; [5]): 0.362 ± 0.021 %ID/gram
Distribution, muscle, MP-10 block (PDE10A [3]; [5]): 0.224 ± 0.012 %ID/gram
Distribution, striatum, MP-10 block (PDE10A [3]; [5]): 0.175 ± 0.022 %ID/gram
Distribution, total brain, MP-10 block (PDE10A [3]; [5]): 0.114 ± 0.007 %ID/gram
striatal binding after blocking dose of MP-10 (PDE10A [3]; rats, MP-10 2 mg/kg i.v. 5 min prior to tracer, p < 0.05): significant reduction
striatum: cerebellum ratio ([2]; SD rats, 60 min p.i.): 2.5 fold
Biodistribution, blood ([2]; 5 min p.i.): 0.268 ± 0.053 %ID/gram
Biodistribution, cerebellum ([2]; 5 min p.i.): 0.215 ± 0.031 %ID/gram
Biodistribution, fat ([2]; 5 min p.i.): 0.242 ± 0.065 %ID/gram
Biodistribution, heart ([2]; 5 min p.i.): 0.464 ± 0.023 %ID/gram
Biodistribution, kidney ([2]; 5 min p.i.): 2.340 ± 0.295 %ID/gram
Biodistribution, liver ([2]; 5 min p.i.): 7.080 ± 0.435 %ID/gram
Biodistribution, lung ([2]; 5 min p.i.): 0.890 ± 0.206 %ID/gram
Biodistribution, muscle ([2]; 5 min p.i.): 0.258 ± 0.035 %ID/gram
Biodistribution, striatum ([2]; 5 min p.i.): 0.352 ± 0.052 ^a %ID/gram
Biodistribution, total brain ([2]; 5 min p.i.): 0.210 ± 0.035 %ID/gram
Biodistribution, blood ([2]; 30 min p.i. (control)): 0.192 ± 0.075 %ID/gram
Biodistribution, cerebellum ([2]; 30 min p.i. (control)): 0.066 ± 0.023 %ID/gram
Biodistribution, fat ([2]; 30 min p.i. (control)): 0.371 ± 0.091 %ID/gram
Biodistribution, heart ([2]; 30 min p.i. (control)): 0.187 ± 0.042 %ID/gram
Biodistribution, kidney ([2]; 30 min p.i. (control)): 1.294 ± 0.268 %ID/gram
Biodistribution, liver ([2]; 30 min p.i. (control)): 10.085 ± 1.972 %ID/gram
Biodistribution, lung ([2]; 30 min p.i. (control)): 0.233 ± 0.045 %ID/gram
Biodistribution, muscle ([2]; 30 min p.i. (control)): 0.133 ± 0.035 %ID/gram
Biodistribution, striatum ([2]; 30 min p.i. (control)): 0.230 ± 0.030 ^a %ID/gram and 0.230 ± 0.030 %ID/gram
Biodistribution, total brain ([2]; 30 min p.i. (control)): 0.087 ± 0.016 %ID/gram
Biodistribution, blood ([2]; 60 min p.i.): 0.152 ± 0.030 %ID/gram
Biodistribution, cerebellum ([2]; 60 min p.i.): 0.046 ± 0.014 %ID/gram
Biodistribution, fat ([2]; 60 min p.i.): 0.278 ± 0.040 %ID/gram
Biodistribution, heart ([2]; 60 min p.i.): 0.121 ± 0.025 %ID/gram
Biodistribution, kidney ([2]; 60 min p.i.): 0.758 ± 0.112 %ID/gram
Biodistribution, lung ([2]; 60 min p.i.): 0.163 ± 0.027 %ID/gram
Biodistribution, muscle ([2]; 60 min p.i.): 0.084 ± 0.013 %ID/gram
Biodistribution, striatum ([2]; 60 min p.i.): 0.201 ± 0.037 ^a %ID/gram
Biodistribution, total brain ([2]; 60 min p.i.): 0.057 ± 0.008 %ID/gram
blood–brain-barrier penetration (PDE10A [4]): readily penetrate the blood–brain-barrier
